# Test results from patent US20230414573A1, “SYNERGISTIC OPHTHALMOLOGICAL COMPOSITION IN A LOW-CONCENTRATION DOSE THAT IS EFFECTIVE IN THE PREVENTION, CONTROL AND ERADICATION OF PRESBYOPIA” (priority 2020, published 2023).
# Values joined by “and” are separate entries in the source; they are usually repeats but may differ in a detail not shown here. Equal entries are not always repeated.
# System: eyes of patients with presbyopia
# Assay: Clinical trial: near vision on Rosenbaum chart with Jaeger notation
# Format: in vivo, human
# Details: one hour after instillation; for JAEGER- 2 (Jaeger scale, near vision): one drop, synergistic mixture in non-dominant eye, pilocarpine or brimonidine dilution in dominant eye, 11 patients, baseline 5.82; for WINNED LINES (lines gained in the reading primer with Jaeger's notation): synergistic combination in non-dominant eye, comparators in dominant eye
# Description: A composition was prepared where patients with presbyopia symptoms were selected. This study was approved by the ethics committee of Optall Vision Eye Center in Mexico City. All patients signed and gave their consent to participate in such study.
# For the study, patients with presbyopia, with a corrected visual acuity of 20/25 or better, were included. The diagnosis of presbyopia was determined without correcting near vision acuity was equal to or less than 3 on the Jaeger scale on the Rosenbaum chart improving at least 2 on the Jaeger scale with the use of at least +1.00 D. Age, gender, ocular dominance, uncorrected visual acuity (UCVA), corrected near visual acuity (BNCVA) intraocular pressure with Goldmann applanation tonometer (IOP), pupil diameter under photopic and scotopic conditions (PD), slit lamp biomicroscopic examination and a fundus examination were recorded.
# The ophthalmic composition comprised a single low concentration dose of pilocarpine, brimonidine, oxymetazoline/sodium hyaluronate, bromfenac and/or at least one vasoconstrictor and at least one pharmaceutically acceptable vehicle. From said combination, one drop of the synergistic mixture was applied and instilled in the nondominant eye and one drop of pilocarpine or brimonidine dilution was alternately instilled in the dominant eye of consecutive patients. After one hour, uncorrected visual acuity (UCVA), corrected visual acuity (BCVA), uncorrected near visual acuity (UNVA), corrected near visual acuity (BCNVA), intraocular pressure (IOP), pupil diameter (PD), visual analog pain scale (VAS) was measured from 0 to 10. Hyperemia was measured from 1 to 4.
# Statistical analyses were performed with SPSS using Pearson's and Spearman's correlation analysis.
# The type of modern Jaeger eye chart scale used generally ranges from J10 (approximately 14 points for Times New Roman typeface) to J1 (approximately 3 points, Times New Roman typeface). The chart moves back and forth until you can read a certain font size.
SMILES,"JAEGER- 2 (Jaeger scale, near vision)",WINNED LINES (lines gained in the reading primer with Jaeger's notation),WINNED LINES (lines gained in the reading primer with Jaeger's notation) (listed as brimonidine),"JAEGER- 2 (Jaeger scale, near vision) (listed as pilocarpine)",WINNED LINES (lines gained in the reading primer with Jaeger's notation) (listed as pilocarpine)
"Brc1c(NC2=NCCN2)ccc2nccnc12 [Brimonidine, brimonidine]",3.50±−1.761 and 3.5,2.33,2.33±−2.50,–,–
"CC[C@@H]1C(=O)OC[C@@H]1Cc1cncn1C [Pilocarpine, pilocarpine]",4.2,1.6,–,4.20±−1.483,1.60±−089
